The results in this text go back to US20260078120A1, “SUBSTITUTED PYRIDOPYRIMIDINONES” (MIRATI THERAPEUTICS, INC., priority 2022, published 2026).

Experiment [1] relates to T47D (PI3Kα H1047R mutant) cells. The experiment is described as follows: CellTiter-Glo 2.0 luminescent cell viability assay, 72 hours, T47D cells. The class given is cell-based. To be noted: Homo sapiens, T47D, 72 h, T47D (PI3Kα H1047R mutant) cells, CellTiter-Glo, approximately 72 hours; read-out: T47D (H1047R mutant) Viability IC50. The method, then: This Example illustrates that exemplary compounds of the present invention decrease the viability of cells.
(§1) The ability of a compound of Formula (I) to decrease the viability of cells was measured using CellTiter-Glo 2.0 (CTG) Luminescent Cell Viability Assay (#G9241) obtained from Promega (Madison, WI).
To prepare assay plates for viability assays, cells were trypsinized, resuspended in fresh media, and viable cells were counted utilizing trypan blue exclusion. T47D, SKBR3, or MKN1 cells were seeded at 1000 cells in 30 μl per well in a solid white flat bottom 384 cell culture plate (Perkin Elmer #6007680) and incubated at 37° C. overnight.
(§2) Assay day 1, cells were dosed using an Echo Liquid Handler (Beckman Coulter) with compounds at a 10 um starting concentration and serially diluted (1:4) for a total of 10 concentrations. Cells were incubated for approximately 72 hours with the compounds (solubilized in DMSO) at 37° C. After 72 hours of treatment, cell plates were equilibrated to room temperature before adding 15 μl of CTG to each well, plates were then covered in aluminum foil to protect from light, incubated at room temperature for 30 minutes on a microtiter plate shaker, and luminescence readings were collected using a CLARIOstar microplate reader (BMG Labtech, Germany). Percent of vehicle control values were plotted as log (inhibitor) vs. response-Variable slope (four parameters) for curve fitting and IC50 values were determined using XLfit.

Experiment [2] concerns SKBR3 (PI3Kα wild type) cells. The experiment in a line: CellTiter-Glo 2.0 luminescent cell viability assay, 72 hours, SKBR3 cells. The note with it: Homo sapiens, SK-BR-3, 72 h, SKBR3 (PI3Kα wild type) cells, CellTiter-Glo, approximately 72 hours; read-out: SKBR3 (WT) Viability IC50. The class given is cell-based. The method, then: as §1
To prepare assay plates for viability assays, cells were trypsinized, resuspended in fresh media, and viable cells were counted utilizing trypan blue exclusion.
as §2

By IC50 is commonly meant the concentration at which inhibition is half-maximal. As for `Cc1cc([C@@H](C)Nc2ccccc2C(=O)O)c2nc(N3CC4C5CCC(CC5)C4C3)c(C)c(=O)n2c1` (stereo partly drawn) [Example 10-133, 2-(((1R)-1-(3,7-dimethyl-2-(octahydro-2H-4,7-ethanoisoindol-2-yl)-4-oxo-4H-pyrido[1,2-a]pyrimidin-9-yl)ethyl)amino)benzoic acid], the IC50 in experiment [1] is 55.4 nM; in experiment [2] it was more than 10000 nM.

For `Cc1cc([C@@H](C)Nc2ccccc2C(=O)O)c2nc(N3Cc4ccc(F)cc4C3)c(C)c(=O)n2c1` [Example 10-134, (R)-2-((1-(2-(5-fluoroisoindolin-2-yl)-3,7-dimethyl-4-oxo-4H-pyrido[1,2-a]pyrimidin-9-yl)ethyl)amino)benzoic acid], the results for the IC50 in experiment [1] and in experiment [2] were 56.6 nM and more than 10000 nM, respectively.

Regarding `Cc1cc([C@@H](C)Nc2ccccc2C(=O)O)c2nc(N3CCC(O)(C(C)C)C3)c(C)c(=O)n2c1` (stereo partly drawn) [Example 10-135, 2-(((1R)-1-(2-(3-hydroxy-3-isopropylpyrrolidin-1-yl)-3,7-dimethyl-4-oxo-4H-pyrido[1,2-a]pyrimidin-9-yl)ethyl)amino)benzoic acid], the results for the IC50 in experiment [1] and in experiment [2] were 61 nM and more than 10000 nM, respectively.

Turning to `Cc1cc([C@@H](C)Nc2ccccc2C(=O)O)c2nc(N3CC4CC3CC4C)c(C)c(=O)n2c1` (stereo partly drawn) [Example 10-136, 2-(((1R)-1-(3,7-dimethyl-2-(5-methyl-2-azabicyclo[2.2.1]heptan-2-yl)-4-oxo-4H-pyrido[1,2-a]pyrimidin-9-yl)ethyl)amino)benzoic acid], the IC50 in experiment [1] is 64.2 nM; in experiment [2] it was more than 10000 nM.

On to `Cc1cc([C@@H](C)Nc2ccccc2C(=O)O)c2nc(N3Cc4ccc(CO)cc4C3)c(C)c(=O)n2c1` [Example 10-137, (R)-2-((1-(2-(5-(hydroxymethyl)isoindolin-2-yl)-3,7-dimethyl-4-oxo-4H-pyrido[1,2-a]pyrimidin-9-yl)ethyl)amino)benzoic acid], for which the IC50 in experiment [1] is 69.5 nM; in experiment [2] it was more than 10000 nM.

For the compound `Cc1cc([C@@H](C)Nc2ccccc2C(=O)O)c2nc(N3CCC4(CCOC4)C3)c(C)c(=O)n2c1` (stereo partly drawn) [Example 10-138, 2-(((1R)-1-(3,7-dimethyl-4-oxo-2-(2-oxa-7-azaspiro[4.4]nonan-7-yl)-4H-pyrido[1,2-a]pyrimidin-9-yl)ethyl)amino)benzoic acid], the IC50 in experiment [1] is 71.5 nM; in experiment [2], more than 10000 nM.

On to `COc1cc2c(cc1OC)CN(c1nc3c([C@@H](C)Nc4ccccc4C(=O)O)cc(C)cn3c(=O)c1C)C2` [Example 10-139, (R)-2-((1-(2-(5,6-dimethoxyisoindolin-2-yl)-3,7-dimethyl-4-oxo-4H-pyrido[1,2-a]pyrimidin-9-yl)ethyl)amino)benzoic acid], for which the half-inhibitory concentration (IC50) in experiment [1] was 74.3 nM; in experiment [2] it was more than 10000 nM.

Consider `Cc1cc([C@@H](C)Nc2ccccc2C(=O)O)c2nc(N3CCC(c4ccccn4)C3)c(C)c(=O)n2c1` (stereo partly drawn) [Example 10-142, 2-(((1R)-1-(3,7-dimethyl-4-oxo-2-(3-(pyridin-2-yl)pyrrolidin-1-yl)-4H-pyrido[1,2-a]pyrimidin-9-yl)ethyl)amino)benzoic acid], for which the IC50 in experiment [1] is 80.1 nM; in experiment [2], more than 10000 nM.

Regarding `Cc1cc([C@@H](C)Nc2ccccc2C(=O)O)c2nc(N3CCC4(CCC(O)C4)CC3)c(C)c(=O)n2c1` (stereo partly drawn) [Example 10-143, 2-(((1R)-1-(2-(2-hydroxy-8-azaspiro[4.5]decan-8-yl)-3,7-dimethyl-4-oxo-4H-pyrido[1,2-a]pyrimidin-9-yl)ethyl)amino)benzoic acid], the results for the IC50 in experiment [1] and in experiment [2] were 83.1 nM and more than 10000 nM, respectively.

`Cc1cc([C@@H](C)Nc2ccccc2C(=O)O)c2nc(N3CC4(CO)CCCC3C4)c(C)c(=O)n2c1` (stereo partly drawn) [Example 10-144, 2-(((1R)-1-(2-(1-(hydroxymethyl)-6-azabicyclo[3.2.1]octan-6-yl)-3,7-dimethyl-4-oxo-4H-pyrido[1,2-a]pyrimidin-9-yl)ethyl)amino)benzoic acid]: the IC50 in experiment [1] was 91.3 nM; in experiment [2], more than 10000 nM.

Turning to `Cc1cc([C@@H](C)Nc2ccccc2C(=O)O)c2nc(N3CC4CC4(C(F)(F)F)C3)c(C)c(=O)n2c1` (stereo partly drawn) [Example 10-145, 2-(((1R)-1-(3,7-dimethyl-4-oxo-2-(1-(trifluoromethyl)-3-azabicyclo[3.1.0]hexan-3-yl)-4H-pyrido[1,2-a]pyrimidin-9-yl)ethyl)amino)benzoic acid], the IC50 was 98.5 nM in experiment [1] and more than 10000 nM in experiment [2].

On to `Cc1cc([C@@H](C)Nc2ccccc2C(=O)O)c2nc(N3CC4CCC(C3)C4O)c(C)c(=O)n2c1` (stereo partly drawn) [Example 10-146, 2-(((1R)-1-(2-(8-hydroxy-3-azabicyclo[3.2.1]octan-3-yl)-3,7-dimethyl-4-oxo-4H-pyrido[1,2-a]pyrimidin-9-yl)ethyl)amino)benzoic acid], for which the IC50 in experiment [1] is 100 nM; in experiment [2], more than 10000 nM.

As for `Cc1cc([C@@H](C)Nc2ccccc2C(=O)O)c2nc(N3CC4CCC3C(O)C4)c(C)c(=O)n2c1` (stereo partly drawn) [Example 10-147, 2-(((1R)-1-(2-(6-hydroxy-2-azabicyclo[2.2.2]octan-2-yl)-3,7-dimethyl-4-oxo-4H-pyrido[1,2-a]pyrimidin-9-yl)ethyl)amino)benzoic acid], the IC50 was 107 nM in experiment [1] and more than 10000 nM in experiment [2].

In the case of `Cc1cc([C@@H](C)Nc2ccccc2C(=O)O)c2nc(N3CC45COCC4(COC5)C3)c(C)c(=O)n2c1` (stereo partly drawn) [Example 10-148, 2-(((R)-1-(2-((3aS,6aS)-1H,3H,4H-3a,6a-(methanooxymethano)furo[3,4-c]pyrrol-5(6H)-yl)-3,7-dimethyl-4-oxo-4H-pyrido[1,2-a]pyrimidin-9-yl)ethyl)amino)benzoic acid], the IC50 was 108 nM in experiment [1] and more than 10000 nM in experiment [2].

Consider `Cc1cc([C@@H](C)Nc2ccccc2C(=O)O)c2nc(N3CCC(C(C)(C)C)n4nccc43)c(C)c(=O)n2c1` (stereo partly drawn) [Example 11-13, 2-(((1R)-1-(2-(7-(tert-butyl)-6,7-dihydropyrazolo[1,5-a]pyrimidin-4(5H)-yl)-3,7-dimethyl-4-oxo-4H-pyrido[1,2-a]pyrimidin-9-yl)ethyl)amino)benzoic acid], for which the IC50 in experiment [1] is 324 nM; in experiment [2], more than 10000 nM.

`Cc1cc([C@@H](C)Nc2ccccc2C(=O)O)c2nc(N3CCC(c4ccccc4)C3)c(C)c(=O)n2c1` (stereo partly drawn) [Example 11-14, 2-(((1R)-1-(3,7-dimethyl-4-oxo-2-(3-phenylpyrrolidin-1-yl)-4H-pyrido[1,2-a]pyrimidin-9-yl)ethyl)amino)benzoic acid]: the IC50 in experiment [1] was 233 nM; in experiment [2], more than 10000 nM.

In the case of `Cc1cc([C@@H](C)Nc2ccccc2C(=O)O)c2nc(N3Cc4nc(C)sc4C3)c(C)c(=O)n2c1` [Example 11-15, (R)-2-((1-(3,7-dimethyl-2-(2-methyl-4,6-dihydro-5H-pyrrolo[3,4-d]thiazol-5-yl)-4-oxo-4H-pyrido[1,2-a]pyrimidin-9-yl)ethyl)amino)benzoic acid], the results for the IC50 in experiment [1] and in experiment [2] were 156 nM and more than 10000 nM, respectively.

In the case of `Cc1cc([C@@H](C)Nc2ccccc2C(=O)O)c2nc(N3CC(c4ccccn4)C3)c(C)c(=O)n2c1` [Example 11-16, (R)-2-((1-(3,7-dimethyl-4-oxo-2-(3-(pyridin-2-yl)azetidin-1-yl)-4H-pyrido[1,2-a]pyrimidin-9-yl)ethyl)amino)benzoic acid], the IC50 in experiment [1] is 389 nM; in experiment [2], more than 10000 nM.
